Laboratory results published in US6686373B2, “Pyrazoloquinolinone derivatives as protein kinase C inhibitors” (Warner-Lambert Company LLC, priority 2001, dated 2004).
Where a name gives a salt, the structure may show the parent alone.

| melting point | SMILES |
| --- | --- |
| 235 to 240 °C | CN(C)CCOc1ccc(Cc2ccc3[nH]c4cnn(C)c4c(=O)c3c2)cc1.Cl |
| 287 °C (dec.) | Cl.Cn1ncc2[nH]c3ccc(Cc4cccc(N)c4)cc3c(=O)c21 |
| 273 °C | Cl.Cn1ncc2[nH]c3ccc(Cc4ccccc4N)cc3c(=O)c21 |
| > 300 °C | Cl.Cn1ncc2[nH]c3ccc(Cc4ccc(CN)cc4)cc3c(=O)c21 |
| > 300 °C | Cl.Cn1ncc2[nH]c3ccc(Cc4cccc(CN)c4)cc3c(=O)c21 |
| > 250 °C | Cl.Cn1ncc2[nH]c3ccc(Cc4ccccc4CN)cc3c(=O)c21 |
| 259 °C | Cl.Cn1ncc2[nH]c3ccc(Cc4cccnc4)cc3c(=O)c21 |
| > 300 °C | Cl.Cn1ncc2[nH]c3ccc(CCCN)cc3c(=O)c21 |
| 80 to 82 °C | CCCCCCn1c2ccc(C)cc2c(=O)c2c1cnn2C |
| 240 °C | Cc1ccc2c(c1)c(=O)c1c(cnn1C)n2CCCN(C)C.Cl |
| 255 °C | Cc1ccc2c(c1)c(=O)c1c(cnn1C)n2CCN(C)C.Cl |
| 210 °C | Cc1ccc2c(c1)c(=O)c1c(cnn1C)n2CCCCCCN(C)C.Cl |
| 213 °C | CCN(C)CCCn1c2ccc(C)cc2c(=O)c2c1cnn2C.Cl |
| > 280 °C | Cc1ccc2c(c1)c(=O)c1c(cnn1C)n2CCN.Cl |
| > 250 °C | Cn1ncc2[nH]c3c(c(=O)c21)CC(Cc1ccccc1)CC3 (stereo not drawn) (as salt: hydrochloride) |
| 279 °C | Cn1ncc2[nH]c3c(c(=O)c21)CC(Cc1ccc(Cl)cc1)CC3 (stereo not drawn) (as salt: hydrochloride) |
| 301 °C | Cn1ncc2[nH]c3ccc(F)cc3c(=O)c21 [Example 1, 7-FLUORO-1-METHYL-1,4-DIHYDRO-9H-PYRAZOLO[4,3-b]QUINOLIN-9-ONE] |
| > 300 °C | Cn1ncc2[nH]c3c(F)cccc3c(=O)c21 [Example 2, 5-FLUORO-1-METHYL-1,4-DIHYDRO-9H-PYRAZOLO[4,3-b]QUINOLIN-9-ONE] |
| 269 °C | Cn1ncc2[nH]c3cc(F)ccc3c(=O)c21 [Example 3, 6-FLUORO-1-METHYL-1,4-DIHYDRO-9H-PYRAZOLO[4,3-b]QUINOLIN-9-ONE] |
| > 300 °C | Cn1ncc2[nH]c3cccc(F)c3c(=O)c21 [Example 4, 8-FLUORO-1-METHYL-1,4-DIHYDRO-9H-PYRAZOLO[4,3-b]QUINOLIN-9-ONE] |
| 287 °C | Cn1ncc2[nH]c3c(Br)cccc3c(=O)c21 [Example 5, 5-BROMO-1-METHYL-1,4-DIHYDRO-9H-PYRAZOLO[4,3-b]QUINOLIN-9-ONE] |
| 266 °C | CCc1ccc2[nH]c3cnn(C)c3c(=O)c2c1 [Example 6, 7-ETHYL-1-METHYL-1,4-DIHYDRO-9H-PYRAZOLO[4,3-b]QUINOLIN-9-ONE] |
| 254 °C | CCc1cccc2c(=O)c3c(cnn3C)[nH]c12 [Example 7, 5-ETHYL-1-METHYL-1,4-DIHYDRO-9H-PYRAZOLO[4,3-b]QUINOLIN-9-ONE] |
| 250 °C | CCc1cccc2[nH]c3cnn(C)c3c(=O)c12 [Example 8, 8-ETHYL-1-METHYL-1,4-DIHYDRO-9H-PYRAZOLO[4,3-b]QUINOLIN-9-ONE] |

| melting point | SMILES |
| --- | --- |
| 263 °C | CCc1ccc2c(=O)c3c(cnn3C)[nH]c2c1 [Example 9, 6-ETHYL-1-METHYL-1,4-DIHYDRO-9H-PYRAZOLO[4,3-b]QUINOLIN-9-ONE] |
| 282 °C | Cn1ncc2[nH]c3ccc(Cc4ccccc4)cc3c(=O)c21 [Example 11, 7-BENZYL-1-METHYL-1,4-DIHYDRO-9H-PYRAZOLO[4,3-b]QUINOLIN-9-ONE] |
| > 300 °C | Cc1ccc2[nH]c3c(N)nn(C)c3c(=O)c2c1 [Example 12, 3-AMINO-1,7-DIMETHYL-1,4-DIHYDRO-9H-PYRAZOLO[4,3-b]QUINOLIN-9-ONE] |
| 278 °C | Cn1ncc2[nH]c3ccc(Cc4ccccc4Cl)cc3c(=O)c21 [Example 15, 7-(2-CHLOROBENZYL)-1-METHYL-1,4-DIHYDRO-9H-PYRAZOLO[4,3-b]QUINOLIN-9-ONE] |
| 248 to 249 °C | COc1ccc(Cc2ccc3[nH]c4cnn(C)c4c(=O)c3c2)cc1 [Example 16, 7-(4-METHOXYBENZYL)-1-METHYL-1,4-DIHYDRO-9H-PYRAZOLO[4,3-b]QUINOLIN-9-ONE] |
| > 270 °C | Cn1ncc2[nH]c3ccc(Cc4cccc(O)c4)cc3c(=O)c21 [Example 20, 7-(3-HYDROXYBENZYL)-1-METHYL-1,4-DIHYDRO-9H-PYRAZOLO[4,3-b]QUINOLIN-9-ONE] |
| 255 °C | COc1ccccc1Cc1ccc2[nH]c3cnn(C)c3c(=O)c2c1 [Example 21, 7-(2-METHOXYBENZYL)-1-METHYL-1,4-DIHYDRO-9H-PYRAZOLO[4,3-b]QUINOLIN-9-ONE] |
| 279 to 283 °C | Cn1ncc2[nH]c3ccc(Cc4cccc([N+](=O)[O-])c4)cc3c(=O)c21 [Example 23, 1-METHYL-7-(3-NITROBENZYL)-1,4-DIHYDRO-9H-PYRAZOLO[4,3-b]QUINOLIN-9-ONE] |
| 291 °C | Cn1ncc2[nH]c3ccc(Cc4ccc(C#N)cc4)cc3c(=O)c21 [Example 26, 4-[(1-METHYL-9-OXO-4,9-DIHYDRO-1H-PYRAZOLO[4,3-b]QUINOLIN-7-YL)METHYL]BENZONITRILE] |
| 275 °C | Cn1ncc2[nH]c3ccc(Cc4cccc(C#N)c4)cc3c(=O)c21 [Example 28, 3-[(1-METHYL-9-OXO-4,9-DIHYDRO-1H-PYRAZOLO[4,3-b]QUINOLIN-7-YL)METHYL]BENZONITRILE] |
| > 300 °C | Cn1ncc2[nH]c3ccc(Cc4cccc(C(N)=O)c4)cc3c(=O)c21 [Example 29, 3-[(1-METHYL-9-OXO-4,9-DIHYDRO-1H-PYRAZOLO[4,3-b]QUINOLIN-7-YL)METHYL]BENZAMIDE] |
| > 300 °C | Cn1ncc2[nH]c3ccc(Cc4cccc(C(=O)O)c4)cc3c(=O)c21 [Example 30, 3-[(1-METHYL-9-OXO-4,9-DIHYDRO-1H-PYRAZOLO[4,3-b]QUINOLIN-7-YL)METHYL]BENZOIC ACID] |
| > 300 °C | Cn1ncc2[nH]c3ccc(Cc4ccccc4C(N)=O)cc3c(=O)c21 [Example 32, 2-[(1-METHYL-9-OXO-4,9-DIHYDRO-1H-PYRAZOLO[4,3-b]QUINOLIN-7-YL)METHYL]BENZAMIDE] |
| > 300 °C | Cn1ncc2[nH]c3cccc(-c4ccc(O)cc4)c3c(=O)c21 [Example 38, 8-(4-HYDROXYPHENYL)-1-METHYL-1,4-DIHYDRO-9H-PYRAZOLO[4,3-b]QUINOLIN-9-ONE] |
| > 300 °C | Cn1ncc2[nH]c3cccc(-c4cccc(O)c4)c3c(=O)c21 [Example 39, 8-(3-HYDROXYPHENYL)-1-METHYL-1,4-DIHYDRO-9H-PYRAZOLO[4,3-b]QUINOLIN-9-ONE] |
| > 250 °C | Cn1ncc2[nH]c3ccc(-c4cccc(O)c4)cc3c(=O)c21 [Example 40, 7-[3-HYDROXYPHENYL]-1-METHYL-1,4-DIHYDRO-9H-PYRAZOLO[4,3-b]QUINOLIN-9-ONE] |
| > 300 °C | Cn1ncc2[nH]c3ccc(NC(=O)c4ccccc4)cc3c(=O)c21 [Example 46, N-(1-METHYL-9-OXO-4,9-DIHYDRO-1H-PYRAZOLO[4,3-b]QUINOLIN-7-YL)BENZAMIDE] |
| 262 °C | CCCCn1c2ccc(C)cc2c(=O)c2c1cnn2C [Example 48, 4-BUTYL-1,7-DIMETHYL-1,4-DIHYDRO-9H-PYRAZOLO[4,3-b]QUINOLIN-9-ONE] |
| 214 to 219 °C | Cc1ccc2c(c1)c(=O)c1c(cnn1C)n2CC#N [Example 51, (1,7-DIMETHYL-9-OXO-1,9-DIHYDRO-4H-PYRAZOLO[4,3-b]QUINOLIN-4-YL)ACETONITRILE] |
| 247 to 252 °C | Cc1ccc2c(c1)c(=O)c1c(cnn1C)n2CC(N)=O [Example 52, 2-(1,7-DIMETHYL-9-OXO-1,9-DIHYDRO-4H-PYRAZOLO[4,3-b]QUINOLIN-4-YL)ACETAMIDE] |
| 125 °C | CSCCn1c2ccc(C)cc2c(=O)c2c1cnn2C [Example 53, 1,7-DIMETHYL-4-[2-(METHYLSULFANYL)ETHYL]-1,4-DIHYDRO-9H-PYRAZOLO[4,3-b]QUINOLIN-9-ONE] |
| 179 °C | Cc1ccc2c(c1)c(=O)c1c(cnn1C)n2CCCNS(C)(=O)=O [Example 60, N-[3-(1,7-DIMETHYL-9-OXO-1,9-DIHYDRO-4H-PYRAZOLO[4,3-b]QUINOLIN-4-YL)PROPYL]METHANESULFONAMIDE] |
| 196 °C | Cc1ccc2c(c1)c(=O)c1c(cnn1C)n2CCCl [Example 62, 4-(2-CHLOROETHYL)-1,7-DIMETHYL-1,4-DIHYDRO-9H-PYRAZOLO[4,3-b]QUINOLIN-9-ONE] |
| > 300 °C | Cn1ncc2[nH]c3c(c(=O)c21)CCCC3 [Example 67, 1-METHYL-5,6,7,8-TETRAHYDRO-1H-PYRAZOLO[4,3-b]QUINOLIN-9-OL] |
